This note sets out measurements from paper PMC8466781, “Evaluation of Synthetic 2,4-Disubstituted-benzo[g]quinoxaline Derivatives as Potential Anticancer Agents” (Pharmaceuticals, 2021).

Data set [1] concerns breast MCF-7 cancer cell line. The data set can be described thus: MTT cytotoxicity assay against breast MCF-7 cancer cell line. The class given is cell-based. The settings on record: Homo sapiens, MCF7, 24 h treatment, mean ± SD, n = 3 experiments, read-out: IC50 (μM) MCF-7, in vitro cytotoxic activity. As to the method:
The effect of the prepared benzo[g]quinoxaline derivatives 2–9 on the viability of breast MCF-7 cancer cell line was studied using MTT assay. The cytotoxicity was assessed using Dox as positive reference drug.
Antitumor activity of the newly prepared benzo[g]quinoxaline derivatives 2–9 were carried out against breast MCF-7 cancer cell line using MTT assay method. Cells at density of 1 × 10^4 were seeded in 96-well plate at 37 °C for 48 h under 5% CO2. After incubation, the cells were treated with different concentration of the prepared molecules and incubated for 24 h. MTT dye was added at the end of 24 h of drug treatment and incubated for 4 h at 37 °C. 100 µL of dimethyl sulphoxide was added to each well to dissolve the purple formazan formed. The color intensity of the formazan product, which represents the growth condition of the cells, was quantified using an ELISA plate reader at 570 nm. The experimental conditions were carried out with at least three replicates and the experiments were repeated at least three times.
A general note: Formazan colour is commonly taken as a measure of viable cells.

The subject of data set [2] is MCF-7 cells. The data set can be described thus: Cell cycle analysis by DNA flow cytometry (PI staining). To be noted: MCF-7, compound at IC50 (2.89 µM), 48 h; untreated control 2.41%. The class given is cell-based. As to the method:
Compound 3 was tested at its IC50 concentration dose value.
MCF-7 cells (2 × 10^5/well) were harvested and washed twice in PBS. After that, cells were incubated at 37 °C and 5% CO2. The medium was replaced with (DMSO 1% v/v) containing the tested compound, then incubated for 48 h, washed twice in PBS, fixed with 70% ethanol, rinsed again with PBS, and then stained with DNA fluorochrome PI for 15 min at 37 °C. DNA content was analyzed by flow cytometry on a FACS Calibur flow cytometer (Becton and Dickinson, Heidelberg, Germany).
Figure 4 (A) Graphical representation of percentages of cells in pre-G1, G1, G2/M, and S cell cycle phase in MCF-7 cells treated with compound 3 (2.89 µM) for 48 h. (B) Effect of compound 3 (2.89 µM) on cell cycle distribution in MCF-7 cells for 48 h and analyzed by flow cytometry after staining with DNA fluorochrome propidium iodide; most of the compound 3 treated cells were in pre-G1 phase (apoptosis). Data are expressed as the mean ± SD (n = 3 experiments) and statistical comparisons were carried out using one-way analysis of variance (ANOVA) followed by Tukey’s multiple comparison test (*** p < 0.001). ***-Highly significant. […]

Data set [3] concerns MCF-7 cells. As to the kind of experiment: Annexin V-FITC/PI apoptosis staining assay (flow cytometry). The class given is cell-based. The settings on record: MCF-7, compound at IC50 concentration, 48 h. As to the method: Apoptosis staining assay was performed to detect the effect of compound 3 on the percentage of early and late apoptosis in the breast MCF-7 cancer cell line. […] Therefore, compound 3 can be considered an apoptosis inducer in the breast MCF-7 cell line.
Apoptosis in MCF-7 cells was investigated using fluorescent Annexin V-FITC/PI detection kit by flow cytometry assay. Briefly, MCF-7 cells (2 × 10^5) after incubation for 12 h. Cells were treated with compound 3 at its IC50 concentration for 48 h, then the cells were harvested and stained with Annexin V-FITC/PI dye for 15 min in the dark at 37 °C. Flow cytometry analyses were performed using FACS Calibur flow cytometer (Becton and Dickinson, Heidelberg, Germany).
Figure 5 (A) Graphical representation of the effect of compound 3 on induction of apoptosis in MCF-7 cell line. (B) Effect of compound 3 on induction of apoptosis in MCF-7 cell line. Data are expressed as the mean ± SD (n = 3 experiments) and statistical comparisons were carried out using one-way analysis of variance (ANOVA) followed by Tukey’s multiple comparison test (** p < 0.01, and *** p < 0.001). […] The Comp 3 values are given in the order upper left, upper right, lower right, with no measure name. / The Control MCF-7 plot prints 1.51%, 0.13% and 0.77%. These are left out because the untreated control is not a substance.
In general terms: Flow cytometry measures light scatter and fluorescence of single cells or particles in a stream.

The next data set deals with Bax. The data set can be described thus: ELISA measurement of Bax level in MCF-7 cells. Type of data set: cell-based. To be noted: MCF-7 cells treated at IC50 (2.89 µM). As to the method: (§1) In order to investigate the molecular pathway involved in apoptosis, compound 3 was screened for its ability to activate pro-apoptotic protein; Bax and downregulate anti-apoptotic protein; Bcl2 [31]. The MCF-7 cancer cell line was treated with compound 3 at its IC50 value (µM) and the level of expression of proteins involved in apoptosis was quantized using ELISA assay. […] Therefore, it can be concluded that compound 3 can induce the intrinsic pathway of apoptosis by activation of Bax and downregulation of Bcl2.
(§2) The levels of the apoptotic marker Bax, Bcl-2, and Fas/Fas-l were assessed using ELISA kit. The procedure of the used kits was completed according to the manufacturer’s instructions. Briefly, cell lysates were prepared from control and MCF-7 cells (2.5 × 10^5) treated with IC50 concentration of compound 3. Then, equal amounts of cell lysates were loaded then probed with specific antibodies. The samples were measured at 450 nm in ROBONEK P2000 ELISA reader. All experiments were performed in duplicate.
(§3) Figure 6 Effect of compound 3 on apoptosis related proteins, Bax, Bcl2, and Fas/Fas-L in MCF-7 cells. […] Data was expressed as mean ± SD (n = 3 experiments) and statistical comparisons were carried out using one-way analysis of variance (ANOVA) followed by Tukey’s multiple comparison test (*** p < 0.001).

A further data set deals with Bcl2. As to the kind of experiment: ELISA measurement of Bcl2 level in MCF-7 cells. The class given is cell-based. The settings on record: MCF-7 cells treated at IC50 (2.89 µM). As to the method: as §1, §2, §3
In general terms: An ELISA detects its analyte on a solid surface through an enzyme-linked reagent.

The target of the next data set is T1, topoisomerase IIβ (Homo sapiens, UniProt Q02880).
T1 construct: purchased MBS942146
T1 sequence (Q02880 whole entry): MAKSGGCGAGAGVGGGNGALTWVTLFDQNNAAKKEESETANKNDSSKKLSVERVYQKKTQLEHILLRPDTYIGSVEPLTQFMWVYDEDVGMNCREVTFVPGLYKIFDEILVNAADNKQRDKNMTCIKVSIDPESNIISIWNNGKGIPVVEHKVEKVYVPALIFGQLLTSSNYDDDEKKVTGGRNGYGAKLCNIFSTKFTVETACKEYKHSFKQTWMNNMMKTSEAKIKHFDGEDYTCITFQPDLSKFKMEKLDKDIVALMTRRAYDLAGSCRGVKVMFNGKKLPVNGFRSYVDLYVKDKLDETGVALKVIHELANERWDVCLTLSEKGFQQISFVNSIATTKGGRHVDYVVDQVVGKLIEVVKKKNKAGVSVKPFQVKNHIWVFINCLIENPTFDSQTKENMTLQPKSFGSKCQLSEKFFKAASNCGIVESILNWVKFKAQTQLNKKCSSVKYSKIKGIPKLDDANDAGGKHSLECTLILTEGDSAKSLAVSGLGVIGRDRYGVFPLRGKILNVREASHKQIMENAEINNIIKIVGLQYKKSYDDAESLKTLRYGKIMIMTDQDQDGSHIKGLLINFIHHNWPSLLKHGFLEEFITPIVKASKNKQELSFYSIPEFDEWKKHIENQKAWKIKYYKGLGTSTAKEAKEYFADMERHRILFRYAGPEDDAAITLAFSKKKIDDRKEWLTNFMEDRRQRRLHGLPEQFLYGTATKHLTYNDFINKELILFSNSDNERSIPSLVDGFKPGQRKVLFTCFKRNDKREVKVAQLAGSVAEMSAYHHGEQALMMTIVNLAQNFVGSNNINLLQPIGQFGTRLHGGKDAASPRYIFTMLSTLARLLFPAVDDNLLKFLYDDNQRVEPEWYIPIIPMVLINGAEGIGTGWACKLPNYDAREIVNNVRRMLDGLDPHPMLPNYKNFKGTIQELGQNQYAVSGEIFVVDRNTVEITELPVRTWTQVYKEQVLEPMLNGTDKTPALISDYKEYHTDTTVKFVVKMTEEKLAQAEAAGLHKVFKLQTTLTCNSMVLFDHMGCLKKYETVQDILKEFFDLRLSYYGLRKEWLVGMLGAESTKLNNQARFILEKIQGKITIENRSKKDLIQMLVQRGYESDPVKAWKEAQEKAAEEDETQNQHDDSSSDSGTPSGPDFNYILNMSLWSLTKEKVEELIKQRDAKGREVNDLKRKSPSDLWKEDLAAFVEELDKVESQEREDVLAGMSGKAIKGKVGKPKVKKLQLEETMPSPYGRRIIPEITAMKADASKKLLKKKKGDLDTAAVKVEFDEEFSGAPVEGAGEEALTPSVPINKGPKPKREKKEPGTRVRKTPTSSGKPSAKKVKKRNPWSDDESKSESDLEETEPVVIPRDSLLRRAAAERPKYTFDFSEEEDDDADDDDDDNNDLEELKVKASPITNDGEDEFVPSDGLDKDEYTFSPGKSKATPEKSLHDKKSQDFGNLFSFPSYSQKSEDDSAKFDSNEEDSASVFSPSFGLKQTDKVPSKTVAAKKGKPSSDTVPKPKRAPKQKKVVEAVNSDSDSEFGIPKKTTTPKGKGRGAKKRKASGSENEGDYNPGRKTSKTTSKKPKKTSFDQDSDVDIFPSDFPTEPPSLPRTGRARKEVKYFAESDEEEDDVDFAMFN
As to the kind of experiment: Topoisomerase IIβ enzyme inhibition assay (Human DNA topo IIβ ELISA Kit # MBS942146). Type of data set: biochemical. As to the method: To obtain a further insight into the mechanism of cell proliferation inhibition activity, benzo[g]quinoxaline molecule 3 was investigated for topoisomerase IIβ (topo IIβ) inhibitory activity using the Human DNA topo IIβ ELISA Kit # MBS942146.
Compound 3 and Dox were evaluated against topoisomerase IIβ for their inhibitory concentration (µM) using four doses concentration according to manufacturer’s instructions.
Figure 3 Graphical representation for comparison of topo IIβ IC50 of compound 3 and Dox; topo II was performed using four doses protocol for compound 3 and Dox, and the concentration that induced 50% maximum inhibition of topo II was determined from sigmoidal dose–response. Data are expressed as the mean ± SD (n = 3 experiments) and statistical comparisons were carried out using one-way analysis of variance (ANOVA) followed by Tukey’s multiple comparison test (** p < 0.01). **-Significant.

One may read the IC50 as the point on the concentration scale where inhibition reaches its midpoint. One may read the melting point as the temperature of the solid-liquid transition. In the case of `Clc1ccc(C2=Nc3cc4ccccc4cc3NC2)cc1` [Compound 2, 3-(4-Chlorophenyl)-1,2-dihydrobenzo[g]quinoxaline], the melting point is 195 to 197 °C. Moreover, the 50% inhibitory concentration (IC50) in data set [1] stood at 17.2 ± 0.69 µM.

In turn, `Clc1ccc(-c2cnc3cc4ccccc4cc3n2)cc1` [Compound 3, 2-(4-Chlorophenyl)benzo[g]quinoxaline] gave a melting point of 168 to 170 °C. For the same compound, in data set [1], the concentration for half-maximal inhibition (IC50) is 2.89 ± 0.11 µM. The “percentage of cells at the pre-G1 phase” value in the data set with MCF-7 cells [2] amounted to 38.24%. Moreover, in the data set with MCF-7 cells [3] (untreated control 0.13%), the “apoptosis percentage at late stage (upper right quadrant)” value is recorded as 21.38%. For the same compound, the “apoptosis percentage at the early stage (lower right quadrant)” value with MCF-7 cells [3] (untreated control 0.77%) worked out at 1.59%. For the same compound, the “increase of Bax expression compared with untreated control” value in the data set on Bax is given as 3.89 fold. Besides, in the data set with Bcl2, the “downregulation of Bcl2 compared with untreated control” value worked out at 4.35 fold.

`CC(=O)N1C=C(c2ccc(Cl)cc2)Nc2cc3ccccc3cc21` [Compound 4, 1-(3-(4-Chlorophenyl)benzo[g]quinoxalin-1(4H)-yl)ethanone] came in with a melting point of 171 to 173 °C. Also, the half-inhibitory concentration (IC50) in data set [1] was 16.2 ± 0.58 µM.

In the case of `CCOC(=O)C(C#N)=C(c1ccc(O)c(OC)c1)N1C=C(c2ccc(Cl)cc2)Nc2cc3ccccc3cc21` [Compound 5, Ethyl 3-(3-(4-Chlorophenyl)benzo[g]quinoxalin-1(4H)-yl)-2-cyano-3-(4-hydroxy-3-methoxyphenyl)acrylate], the melting point was in the range of 146 to 148 °C. The half-maximal inhibitory concentration (IC50) in data set [1] is 32.1 ± 1.11 µM.

Compound `Nc1c(NCC(=O)c2ccc(Cl)cc2)c(Br)c2ccccc2c1Br` [Compound 8, 2-(3-Amino-1,4-dibromonaphthalen-2-ylamino)-1-(4-chlorophenyl)ethanone] had a melting point of 225 to 227 °C.

Turning to `CC(=O)N1CC(c2ccc(Cl)cc2)=Nc2c1c(Br)c1ccccc1c2Br` [Compound 9, 1-(5,10-Dibromo-3-(4-chlorophenyl)benzo[g]quinoxalin-1(2H)-yl)ethanone], the melting point lay within 205 to 207 °C. The 50% inhibitory concentration (IC50) in data set [1] was 8.84 ± 0.36 µM.

`COc1cccc2c1C(=O)c1c(O)c3c(c(O)c1C2=O)C[C@@](O)(C(=O)CO)C[C@@H]3O[C@H]1C[C@H](N)[C@H](O)[C@H](C)O1` [Dox, Doxorubicin, reference compound]: the half-inhibitory concentration (IC50) was found to be 2.01 ± 0.01 µM in data set [1] and 3.31 µM on topoisomerase IIβ.
